Entries after “also recorded” stand apart in the source; their conditions may differ. Bridge positions count the residues as written; N and C are the ends. Square brackets hold non-standard residues; d marks the D form. Peptide text beside a SMILES is read from it. Nle = CCCC[C@H](N)C(=O)O
Test system: lésions excitotoxiques induites par l'iboténate dans le cerveau de souris en développement
Assay: Ibotenate-induced excitotoxic brain lesions in newborn mice (intracerebral ibotenate at JN or JN+5)
Assay type: in vivo
Source text: Le modèle chez la souris obtenu par injection intracérébrale d'iboténate reproduit : • des lésions du cortex cérébral, semblables à celles observées chez le foetus humain entre 16 et 25 semaines de grossesse, lorsque l'iboténate est injecté le jour de la naissance (JN), • des lésions du cortex cérébral semblables aux lésions du nouveau-né humain à terme, lorsque l'injection d'iboténate est effectuée à JN + 5 et • des lésions de la substance blanche, semblables aux lésions du prématuré humain, lorsque l'iboténate est injecté à JN + 5.
Dans l'ensemble de ces figures : * = p<0,05, ** = p<0,01 (ANOVA + test de comparaison multiple de Dunnett par rapport aux contrôles (iboténate seul)).
Les souris sont préparées comme décrit dans J Clin. Investig. précité.
Le VIP est injecté par voie intracérébrale à raison de 1 µg (dose par animal) et les VIP cycliques ont été injectés par voie intrapéritonéale à raison de 10 µg (dose par animal).

[1] = ibotenate at JN+5, peptide by intracerebral route
[2] = ibotenate at JN+5, peptide by intraperitoneal route

`CCCC[C@H](NC(=O)[C@H](CCC(N)=O)NC(=O)[C@H](CCCCN)NC(=O)[C@H](CCCNC(=N)N)NC(=O)[C@H](CC(C)C)NC(=O)[C@H](CCCCN)NC(=O)[C@@H](NC(=O)[C@H](Cc1ccc(O)cc1)NC(=O)[C@H](CC(N)=O)NC(=O)[C@H](CCC(=O)O)NC(=O)[C@@H](NC(=O)[C@H](Cc1ccccc1)NC(=O)[C@@H](NC(=O)[C@H](C)NC(=O)[C@H](CC(=O)O)NC(=O)[C@H](CO)NC(=O)[C@H](Cc1c[nH]cn1)NC(C)=O)C(C)C)[C@@H](C)O)[C@@H](C)O)C(=O)N[C@@H](C)C(=O)N[C@@H](C)C(=O)N[C@@H](CCCCN)C(=O)N[C@H]1CCCCNC(=O)C[C@@H](C(=O)N[C@@H](CC(C)C)C(=O)N[C@@H](CCCCN)C(=O)N[C@@H](CCCCN)C(=O)NCC(=O)NCC(=O)N[C@H](C(N)=O)[C@@H](C)O)NC(=O)[C@H](CC(N)=O)NC(=O)[C@H](CC(C)C)NC(=O)[C@H](Cc2ccc(O)cc2)NC1=O` [SEQ ID NO:2] (Ac-HSDAVFTENYTKLRKQ[Nle]AAKKYLNDLKKGGT-NH2; lactam 21-25) was tested, and the “delay of administration after the ibotenate injection within which the effects at JN+5 are observed” value (JN+5, peptide given after ibotenate) was 8 à 12 heures, the “taille des lésions corticales” value [1] was “n'est significative que lorsque l'analogue cyclique du VIP de SEQ ID NO:2 est administré par voie parentérale; also recorded: une certaine protection du cortex cérébral” and the “taille des lésions de substance blanche” value [1] was “diminution de la taille des lésions de substance blanche significative; also recorded: protège significativement la substance blanche”. For the same compound, the “taille des lésions corticales” value (ibotenate at JN+5, peptide by intraperitoneal (parenteral) route) was “significative; also recorded: une certaine protection du cortex cérébral, surtout en intrapéritonéale” and the “taille des lésions de substance blanche” value [2] was “diminution de la taille des lésions de substance blanche significative; also recorded: activité significative; also recorded: protège significativement la substance blanche”.

With `CCCC[C@H](NC(=O)[C@H](CCCNC(=N)N)NC(=O)[C@H](CCCCN)NC(=O)[C@H](CCCNC(=N)N)NC(=O)[C@H](CC(C)C)NC(=O)[C@H](CCCCN)NC(=O)[C@@H](NC(=O)[C@H](Cc1ccc(O)cc1)NC(=O)[C@H](CC(N)=O)NC(=O)[C@H](CCC(=O)O)NC(=O)[C@@H](NC(=O)[C@H](Cc1ccccc1)NC(=O)[C@@H](NC(=O)[C@H](C)NC(=O)[C@H](CC(=O)O)NC(=O)[C@H](CO)NC(=O)[C@H](Cc1c[nH]cn1)NC(C)=O)C(C)C)[C@@H](C)O)[C@@H](C)O)C(=O)N[C@@H](C)C(=O)N[C@@H](C)C(=O)N[C@@H](CCCCN)C(=O)N[C@H]1CCCCNC(=O)C[C@@H](C(=O)N[C@@H](CC(C)C)C(=O)N[C@@H](CCCCN)C(=O)N[C@@H](CCCCN)C(=O)NCC(=O)NCC(=O)N[C@H](C(N)=O)[C@@H](C)O)NC(=O)[C@H](CC(N)=O)NC(=O)[C@H](CC(C)C)NC(=O)[C@H](Cc2ccc(O)cc2)NC1=O` [SEQ ID NO:3] (Ac-HSDAVFTENYTKLRKR[Nle]AAKKYLNDLKKGGT-NH2; lactam 21-25) the “taille des lésions de substance blanche” value [2] was “reproduit les effets neuroprotecteurs de l'analogue cyclique de VIP de SEQ ID NO:2” and the “taille des lésions corticales” value (ibotenate at JN, given at the same time, cyclic VIP intraperitoneal, 10 µg per animal) was “reproduit les effets neuroprotecteurs de l'analogue cyclique de VIP de SEQ ID NO:2”.
